Holding throughout (format): cell-based
In experiment [1] the test system is Pseudomonas aeruginosa (ATCC #10145). The experiment in a line: NPN uptake assay (membrane permeability). To be noted: 1% w/v solutions. As to the method:
The NPN uptake assay was performed roughly as previously described. See Helander I. M., Mattila-Sandholm T., Fluorometric assessment of gram-negative bacterial permeabilization, J. Appl. Microbiol. […] Next, the cells were centrifuged (10,000 g, 5 minutes) washed twice with assay buffer (5 mM HEPES-KOH, 5 mM glucose, pH 7.2) and resuspended in assay buffer to OD600=1. 100 microliters of washed cells in assay buffer was then mixed with 100 microliters of assay buffer containing 20 μM NPN in a 96-well optical bottom black plate (Thermo). Two microliters of the test substances were then added, briefly mixed, and then placed in a plate reader to monitor fluorescence (excitation 350 nm, emission 420 nm) at one minute intervals for 10 minutes. Controls containing no cells or water-only were included in the assay. NPN uptake was calculated using the formula below at each time point and averaged over all time-points and three replicates.

For experiment [2], the system named is Burkholderia sp. Troy JZ2. The experiment in a line: Minimum inhibitory concentration testing (microbroth dilution) and synergy index. How it is done: (§1) MICs were determined via microbroth dilution using the following specific test parameters:
(§2) Necessary organism dilutions via OD600 were calculated based on OD600 of 1.0 being equivalent to 8×10^8 CFU/mL. Biocide dilutions were performed in 2-fold increments for each assay.
(§3) Synergy index (SI) scores were calculated according to the mass action equation below: […]
(§4) S.I.[MIC[A]in-blend/MIC[A]alone]+[MIC[B]in-blend/MIC[B]alone]
(§5) Combinations of ingredients were determined to be synergistic (S.I.<0.5), additive (S.I.>0.5 to 1), indifferent (S.I.>1 to <2) or antagonistic (S.I.>2), as defined by EUCAST guidelines. See European Committee for Antimicrobial Susceptibility Testing (EUCAST) of the European Society of Clinical Microbiology and Infectious Diseases (ESCMID). EUCAST Definitive Document E.Def 1.2, May 2000: Terminology relating to methods for the determination of susceptibility of bacteria to antimicrobial agents, Clin. Microbiol. Infect. Off Publ. Eur. Soc. Clin. Microbiol. Infect. Dis. 6, 503-508 (2000); Helander I. M., Mattila-Sandholm T., Fluorometric assessment of gram-negative bacterial permeabilization, J. Appl. Microbiol. 88:213-219 (2000).
Background: In broth dilution the organism is exposed to a series of concentrations in liquid medium.

For another experiment, the system named is Bacillus sp. Troy JZ14. Described as above. The settings on record: 96 well microbroth dilution, MHB, 24 hours of incubation. As to the method:
as §1, §2, §3, §4, §5

A further experiment deals with E. aerogenes ATCC #13048. The description is as above. To be noted: 96 well microbroth dilution, MHB, 24 hours of incubation. How it is done: as §1
(§6) Biocide dilutions were performed in 2-fold increments for each assay.
as §3, §4
(§7) Combinations of ingredients were determined to be synergistic (S.I.<0.5), additive (S.I.>0.5 to 1), indifferent (S.I.>1 to <2) or antagonistic (S.I.>2), as defined by EUCAST guidelines. See European Committee for Antimicrobial Susceptibility Testing (EUCAST) of the European Society of Clinical Microbiology and Infectious Diseases (ESCMID). EUCAST Definitive Document E.Def 1.2, May 2000: Terminology relating to methods for the determination of susceptibility of bacteria to antimicrobial agents, Clin. Microbiol. Infect. Off Publ. Eur. Soc. Clin. Microbiol. Infect. Dis. […] Microbiol.

Another experiment has as its system S. aureus ATCC #6538. The experiment is described as above. The settings on record: 96 well microbroth dilution, MHB, 24 hours of incubation. As to the method: as §1, §6, §3, §4, §7
In experiment [3] the test system is P. aeruginosa ATCC #10145. The experiment is described as above. How it is done: as §1, §6, §3, §4, §7
The test system of a further experiment is E. coli ATCC #11229. The experiment is described as above. To be noted: 96 well microbroth dilution, MHB, 24 hours of incubation. How it is done:
as §1, §6, §3, §4, §7

Experiment [4] deals with Microbacterium sp. Troy JZ13. The experiment is described as above. The settings on record: 96 well microbroth dilution, MHB, 24 hours of incubation. As to the method:
as §1, §6, §3, §4, §7

In experiment [5] the test system is Pseudomonas sp. Troy JZ103. Described as above. The settings on record: 96 well microbroth dilution, MHB, 24 hours of incubation. How it is done: as §1, §6, §3, §4, §7
Experiment [6] relates to bacterial consortium: Alcaligenes faecalis, Enterobacter aerogenes, Escherichia coli, Pseudomonas aeruginosa, Staphylococcus aureus, Microbacterium …. Briefly: Bacterial challenge testing (industrial strength). From the text: Where industrial strength inoculations are indicated, bacterial challenge testing organisms were Alcaligenes faecalis (ATCC #25094), Enterobacter aerogenes (ATCC #13048), Escherichia coli (ATCC #11229), Pseudomonas aeruginosa (ATCC #10145), Staphylococcus aureus (ATCC #6538), Microbacterium paraoxydans (Troy Isolate), Burkholderia cenocepacia (Troy Isolate), Citrobacter werkmanii (Troy Isolate), and Acinetobacter sp. (Troy Isolate). All bacteria were blended from separate overnight cultures grown in Tryptic Soy Broth (TSB) and mixed at equal CFU via OD600 measurements, then diluted to OD600=7 (˜10^9 CFU/mL) to create the final bacterial consortium. Each mixture was prepared shortly before each inoculation. Inoculations were performed by adding […] to 50 g of the indicated test sample to give ˜10^7 CFU/g per inoculation. Viability readings were performed at the indicated intervals following each challenge by applying a small amount of the test sample onto PCA. Plates were then incubated at 32° C. for 3-5 days before being evaluated with a semi-quantitative scale. This scale estimates the approximate CFU/g by visual assessment of the colony density along the streak lines. Readings are recorded as the average of two duplicate semi-quantitative readings from “0” to “4.” Samples were mixed before every viability reading and after every inoculation.
(§8) Challenge test scoring was done by the weighted sum of squares for each of the twelve data points collected for each test sample. The weighting was done proportional to the streak day, with day 1 weighted at 10%, day 2 weighted at 20%, and day 3 weighted at 70%. The sum of all 12 values is then taken and divided by the score of the unprotected sample to achieve the total growth score. The reported “weighted performance” score is 1 minus the growth score.

Experiment [7] deals with Pseudomonas aeruginosa (ATCC #10145). The experiment in a line: Kill curve. To be noted: for Kill curve CFU/mL: 0.2%. As to the method:
Overnight cultures of Pseudomonas aeruginosa (ATCC #10145) growing in Tryptic Soy Broth were diluted to OD600=0.7 in Mueller Hinton Broth containing the indicated level of test compound. Samples containing IPBC were dosed with Polyphase PW40 (40% IPBC). Samples containing ZnO were dosed from a 50% ZnO dispersion (“1678-54”). Time points were collected by adding 1 mL of the sample into 9 mL of Dey-Engley Neutralizing Broth and performing a serial dilution in 1× Butterfield's Phosphate Buffer. Counts were obtained from pour plates in Tryptic Soy Agar after overnight incubation at 35° C.

In experiment [8] the test system is bacterial consortium: Alcaligenes faecalis (ATCC #25094), Enterobacter aerogenes (ATCC #13048), Escherichia coli (ATCC #11229), Pseudomonas aeruginosa (ATCC …). Briefly: Bacterial challenge testing (standard). The settings on record: for Improvement in the bacterial resistance of paint containing IPBC/ZnO: paint challenge testing (Table A9). How it is done: Bacterial and fungal challenge testing was performed following Troy's standard challenge test procedure SOP MI-07. […] Where indicated, additional bacterial organisms were added to the inoculum such that each organism in the inoculum provided equal CFU. […] Fungal consortia were prepared on Malt Agar slants and diluted to 10^6 spores/mL using a hemocytometer to count before use. Each mixture was prepared shortly before each inoculation. Inoculations were performed by adding 0.5 mL to 50 g of the indicated test sample, giving either ˜10^6 CFU/g of bacteria or ˜10^4 spores/g of fungi per challenge. Viability readings were performed at the indicated intervals following each challenge by applying a small amount of the test sample onto PCA (for bacteria) or Malt Agar (for fungus). Bacterial plates were then incubated at 32° C. for 3-5 days, and Malt Agar plates were incubated for 1 week at 28° C. before reading. Viability plates were evaluated with a semi-quantitative scale. This scale estimates the approximate CFU/g by visual assessment of the colony density along the streak lines. Readings are recorded as the average of two duplicate semi-quantitative readings from “0” to “4.” Samples were mixed before every viability reading and after every inoculation.
as §8

The subject of experiment [9] is Pseudomonas aeruginosa (ATCC #10145). Briefly: Growth curves (OD600). As to the method: To generate growth curves, overnight cultures of Pseudomonas aeruginosa (ATCC #10145) from Plate Count Agar were lifted and resuspended in dH2O and adjusted to OD600=0.01 with sterile Mueller Hinton Broth (MHB). This culture was distributed into wells of an uncovered 96-well plate with the indicated biocides. The OD600 was then measured initially and then every 30′ for 16 hours at 37° C. with constant double orbital shaking. Due to the opacity of the samples dosed with some test compounds, the curves were generated by background subtracting from wells containing sterile MHB and then subtracted from their initial (t=0) measurement.

Where [10] appears, read: Interior Paint #1, lowest concentration free of detectable bacterial growth 7 days following the 4th inoculation.
The mark [11] stands for this setting: Joint Compound, lowest concentration free of detectable bacterial growth 7 days following the 4th inoculation.
The mark [12] stands for this setting: 96 well microbroth dilution, MHB, 24 hours of incubation.

Where “and” joins values, the source holds several entries; their conditions need not be identical. Equal entries are not always repeated. Where two headings read alike, the source gives them in different places. Residues, ends and D or L forms follow the SMILES beside them. *: point of attachment. βNA = c1ccc2cc(N*)ccc2c1

Consider `CCCCCCOCCO` [Hexyl Cellosolve], for which the “Membrane disruption potential against Pseudomonas (NPN assay)” value (“Membrane disruption potential” below) in experiment [1] is “highest membrane disruption potential”.
For `CCCCC(O)CO` (stereo not shown) [1,2-hexanediol], the MIC in experiment [2] (Burkholderia, 24 h) was 5000 µg/mL; in the experiment with Bacillus sp. Troy JZ14 (Bacillus, read-out: MIC), 10000 µg/mL; in the experiment on E. aerogenes ATCC #13048 (Klebsiella aerogenes, ATCC13048, read-out: MIC) it was 10000 µg/mL; with S. aureus ATCC #6538 (Staphylococcus aureus, ATCC6538, read-out: MIC), 24000 µg/mL; in experiment [3] (Pseudomonas aeruginosa, ATCC10145, 24 h), 6000 µg/mL; in the experiment with E. coli ATCC #11229 (Escherichia coli, ATCC11229, read-out: MIC), 6000 µg/mL. The MIC worked out at 6000 µg/mL in experiment [4] (read-out: MIC) and 5000 µg/mL in experiment [5] (Pseudomonas, read-out: MIC). Also, the “Pass Level” value in experiment [6] (setting [10]) was “Not Effective”; in experiment [8] (setting [11]), 1.2 % w/w. Also, the entries for the “Pass Level (ppm a.i.)” value in [6] (setting [10]) and in experiment [8] (setting [11]) were > 12,000 ppm a.i and 11,880 ppm a.i, respectively. Moreover, the “Killing of Pseudomonas (kill curve)” value in experiment [7] (1,2-hexanediol added to IPBC/ZnO (FIG. 5)) is listed as “fully capable of killing Pseudomonas”.
Take `[O]=[Zn]` [ZnO, zinc oxide]: the MIC is 2000 ppm in [2] (setting [12]); 3212 ppm in the experiment with Bacillus sp. Troy JZ14; 2400 ppm with E. aerogenes ATCC #13048; 250 ppm with S. aureus ATCC #6538; at least 2400 ppm in experiment [3] (setting [12]); 2400 ppm in the experiment on E. coli ATCC #11229. In addition, the figures for the MIC in experiment [4] and in experiment [5] were 3206 ppm and 3400 ppm, respectively. Moreover, the “Kill of the inoculum” value in experiment [6] (paint, 2.5% w/w (10,000 ppm), 7 days after challenge) is listed as “complete kill”. For the same compound, the “Kill curve CFU/mL” value in [7] (0 hrs) was 5.40E+06 CFU/mL and 7.00E+06 CFU/mL; in experiment [7] (2 hrs), 7.10E+06 CFU/mL and 7.30E+06 CFU/mL; in [7] (24 hrs), 1.33E+10 CFU/mL and 1.45E+10 CFU/mL; in experiment [7] (48 hrs), 4.90E+09 CFU/mL and 3.80E+09 CFU/mL.
Take `CCCCCCOCCOCCO` [Hexyl Carbitol]: the “Membrane disruption potential” value in experiment [1] is “highest membrane disruption potential”. The MIC was 1853 ppm in [2] (setting [12]); 4447 ppm in the experiment on Bacillus sp. Troy JZ14; 11857 ppm in the experiment with S. aureus ATCC #6538; 11856 ppm in experiment [3] (setting [12]); 11857 ppm with E. coli ATCC #11229; 1482 ppm in [4]. Moreover, the MIC in experiment [5] is on record as 5929 ppm. In addition, in experiment [8], the “Improvement in the bacterial resistance of paint containing IPBC/ZnO” value was “highly similar performance as 1,2-hexanediol”.
In the case of `[Cl-].[Cl-].[Mg+2]` [MgCl2], the Pseudomonas growth result in [9] (control, without PAβN (FIG. 1C)) is recorded as “no Pseudomonas inhibition”.
With `CC(=O)OCC(COC(C)=O)OC(C)=O` [Triacetin], the “Improvement in the bacterial resistance of paint containing IPBC/ZnO” value in experiment [8] is on record as “some improvement”.
Consider `CC(C)C(=O)OCC(C)(C)C(O)C(C)C` (stereo not shown) [Texanol], for which the “Membrane disruption potential” value in experiment [1] is “highest membrane disruption potential”.
For the compound `N=C(N)NCCC[C@H](NC(=O)[C@@H](N)Cc1ccccc1)C(=O)Nc1ccc2ccccc2c1` [PAβN, phenylalanine-arginine beta-napthylamide] (H-Phe-Arg-βNA), in [9] (0.125-0.5 mM PAβN alone, 16 hours at 37° C.), the “Impact on Pseudomonas growth” value is given as “minimal impact”.

The values above are taken from patent US20250338851A1, “Boosted IPBC for Wet-State Bacterial Control” (Troy Technology II, Inc., priority 2021, published 2025).
